ChEMBL document CHEMBL1201862, “PubChem BioAssay data set” (2004)
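Briefly, cells in 96-well plates were exposed to five compound concentrations for 48 h, and endpoints were estimated by linear interpolation. Here, GI50 denotes the concentration required for 50% inhibition of growth.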 Active and inactive are the calls of the source. Rule as the data show it: active = GI50 up to about 1.1 µM and inactive = higher.

Columns and labels:
Assay in all cases: NCI anticancer screen, dose series, 48 h
[1] = system: HOP-62
[2] = system: ACHN
[3] = system: NCI-H226
[4] = system: IGROV-1
[5] = system: MDA-MB-231
[6] = system: MDA-N
[7] = system: HL-60
[8] = system: OVCAR-5
[9] = system: OVCAR-4
[10] = system: HT-29
[11] = system: HCT-116
[12] = system: SK-MEL-2
[13] = system: MDA-MB-435
[14] = system: DU-145
[15] = system: A549
[16] = system: UACC-62
[17] = system: Hs-578T
[18] = system: EKVX
[19] = system: LOX IMVI

Compound | GI50 [1] | GI50 [2] | GI50 [3] | GI50 [4] | GI50 [5] | GI50 [6] | GI50 [7] | GI50 [8] | GI50 [9] | GI50 [10] | GI50 [11] | GI50 [12] | GI50 [13] | GI50 [14] | GI50 [15] | GI50 [16] | GI50 [17] | GI50 [18] | GI50 [19]
CCOC(=O)/C(C(=O)c1ccc([N+](=O)[O-])cc1)=C(\NS(=O)(=O)c1cc(C)c(Cl)cc1[S-])[n+]1ccc(N(C)C)cc1 | 29.4 µM (inactive) | 30.1 µM (inactive) | 51.8 µM (inactive) | 45.3 µM (inactive) | 47.9 µM (inactive) | 35.5 µM (inactive) | 30.1 µM (inactive) | 28.8 µM (inactive) | 32.9 µM (inactive) | 24 µM (inactive) | 19.2 µM (inactive) | 3.83 µM (inactive) | 32.8 µM (inactive) | 31 µM (inactive) | 38.8 µM (inactive) | 49.3 µM (inactive) |  |  | 
CNC(=S)N/N=C(\C(=N/NC(=S)NC)c1ccccn1)c1ccccn1 | 7.78 µM (inactive) | 2.99 µM (inactive) | 2 µM (inactive) | 0.759 µM (active) |  | 44.3 µM (inactive) |  |  | 10.9 µM (inactive) | < 0.01 µM (active) | < 0.0306 µM (active) | 14.3 µM (inactive) | 13.8 µM (inactive) | 8.05 µM (inactive) | 5.74 µM (inactive) | 4.59 µM (inactive) | 5.38 µM (inactive) | 1.63 µM (inactive) | 4.82 µM (inactive)
CC(NC(=O)OC(C)(C)C)C(=O)NC(Cc1ccccc1)C(=O)NCC(=O)ON=C1CCCC1 (configuration not stated) | > 100 µM (inactive) | > 100 µM (inactive) | > 100 µM (inactive) | > 100 µM (inactive) | 43.5 µM (inactive) | 35.6 µM (inactive) | > 100 µM (inactive) | > 100 µM (inactive) | > 100 µM (inactive) | > 100 µM (inactive) | 72.8 µM (inactive) | > 100 µM (inactive) | > 100 µM (inactive) | > 100 µM (inactive) | > 100 µM (inactive) | > 100 µM (inactive) |  | > 100 µM (inactive) | > 100 µM (inactive)
CC(C)NC(=O)OCc1c(COC(=O)NC(C)C)c(-c2ccc[n+](COC(=O)C3CC3)c2)n2c1CCC2 | 49.1 µM (inactive) | 20 µM (inactive) | > 100 µM (inactive) | > 100 µM (inactive) | > 100 µM (inactive) |  | 29.6 µM (inactive) | > 100 µM (inactive) | 45.8 µM (inactive) | 79.4 µM (inactive) | 60.5 µM (inactive) | 57.1 µM (inactive) | > 100 µM (inactive) | 37.6 µM (inactive) | 89.1 µM (inactive) | 27.6 µM (inactive) | 79.3 µM (inactive) | > 100 µM (inactive) | 38.8 µM (inactive)
CCN(CC)C(=O)N1CN(c2ccccc2)C2(CCN(CCCSc3ccc(F)cc3)CC2)C1=O |  | 3.01 µM (inactive) | 18.9 µM (inactive) |  |  | 6.15 µM (inactive) | 5.37 µM (inactive) | 14.3 µM (inactive) | 6.75 µM (inactive) | 2.85 µM (inactive) | 2.58 µM (inactive) | 7.16 µM (inactive) | 12.8 µM (inactive) | 5.14 µM (inactive) | 18.8 µM (inactive) | > 10 µM (inactive) | 2.79 µM (inactive) | 3.93 µM (inactive) | 2.84 µM (inactive)
N#CC(c1cc(Cl)ncn1)c1nc2ccccc2s1 (configuration not stated) | 14.1 µM (inactive) | 18.3 µM (inactive) | 25.8 µM (inactive) | 6.92 µM (inactive) | 11.1 µM (inactive) | 6.03 µM (inactive) |  | 18.1 µM (inactive) | 6.46 µM (inactive) | 10.3 µM (inactive) | 7.53 µM (inactive) |  | 18.1 µM (inactive) | 5.56 µM (inactive) | 27.8 µM (inactive) |  |  | 20.9 µM (inactive) | 4.72 µM (inactive)
CCC(=O)Nc1cccc(NC(=O)c2c(Cl)c(Cl)c(Cl)c(Cl)c2-c2nc3ccccc3[nH]2)c1 |  | 80.7 µM (inactive) |  | 14.2 µM (inactive) |  | 22 µM (inactive) | 43 µM (inactive) | > 100 µM (inactive) | 71.6 µM (inactive) | 66.2 µM (inactive) | 7.82 µM (inactive) | > 100 µM (inactive) | 32.4 µM (inactive) | > 100 µM (inactive) | 0.0851 µM (active) | 5.21 µM (inactive) | > 100 µM (inactive) | 52.8 µM (inactive) | 77.4 µM (inactive)
Cc1c(C)c2c(c(N)c1C#N)C(=O)N(O)C2=O |  | > 100 µM (inactive) | > 100 µM (inactive) | > 100 µM (inactive) | > 100 µM (inactive) |  | > 100 µM (inactive) | > 100 µM (inactive) | > 100 µM (inactive) | > 100 µM (inactive) | > 100 µM (inactive) | > 100 µM (inactive) | > 100 µM (inactive) | > 100 µM (inactive) | > 100 µM (inactive) | > 100 µM (inactive) | > 100 µM (inactive) | > 100 µM (inactive) | 
COc1cn2c(cc1=O)COc1ccc(-c3ccccc3)cc1-2 | 83.6 µM (inactive) | 48.4 µM (inactive) | 64.6 µM (inactive) | 38.8 µM (inactive) |  | 49.5 µM (inactive) | 41.3 µM (inactive) | > 96.2 µM (inactive) | > 85.1 µM (inactive) | 45.4 µM (inactive) | 40 µM (inactive) | > 100 µM (inactive) | 39.7 µM (inactive) | 52.4 µM (inactive) | 39.6 µM (inactive) | 44 µM (inactive) |  | 36 µM (inactive) | 36.9 µM (inactive)
CO[C@@](c1ccccc1)(c1nc(C#N)c(N)o1)C(F)(F)F | > 100 µM (inactive) | > 100 µM (inactive) | > 100 µM (inactive) | > 100 µM (inactive) | > 100 µM (inactive) | > 100 µM (inactive) |  |  | > 100 µM (inactive) |  | 78.2 µM (inactive) | > 100 µM (inactive) | > 100 µM (inactive) | > 100 µM (inactive) | > 100 µM (inactive) | 77.4 µM (inactive) |  | > 100 µM (inactive) | > 100 µM (inactive)
O=C1CS/C(=N/N=C/c2cn(Cc3ccc(Cl)cc3Cl)c3ccccc23)N1 | 27.6 µM (inactive) | 53.7 µM (inactive) | > 100 µM (inactive) | 73.3 µM (inactive) | 17 µM (inactive) |  | > 100 µM (inactive) | > 100 µM (inactive) | 21.8 µM (inactive) | 50.1 µM (inactive) | 44.6 µM (inactive) | 23.6 µM (inactive) | 25 µM (inactive) | 53.6 µM (inactive) | 63 µM (inactive) | 91.2 µM (inactive) | 25.8 µM (inactive) | 20.9 µM (inactive) | 25.2 µM (inactive)
CCOC(=O)C(C(=O)OCC)C(=O)c1ccccc1C(=O)c1ccccc1 | > 100 µM (inactive) | > 100 µM (inactive) | > 100 µM (inactive) | > 100 µM (inactive) | > 100 µM (inactive) |  | > 100 µM (inactive) | > 100 µM (inactive) | > 100 µM (inactive) | 28.4 µM (inactive) | 59 µM (inactive) | > 100 µM (inactive) | > 100 µM (inactive) | 43.8 µM (inactive) | > 100 µM (inactive) | > 100 µM (inactive) | 84.7 µM (inactive) | 26.1 µM (inactive) | > 100 µM (inactive)
O=C(N/C(=C\c1cccc([N+](=O)[O-])c1)c1nc2c3c(ccc2[nH]1)C(=O)c1ccccc1C3=O)c1ccccc1 | 37.8 µM (inactive) | 16.6 µM (inactive) | 14 µM (inactive) |  |  |  |  | 26.5 µM (inactive) |  | 35.6 µM (inactive) | 31.6 µM (inactive) | 35 µM (inactive) |  |  | 30.9 µM (inactive) | 55.2 µM (inactive) |  | 12.8 µM (inactive) | 
CC1N[B@@-](C)(c2ccc(C(F)(F)F)cc2)OC1c1ccccc1 (some centres not stated) | > 100 µM (inactive) | 36.9 µM (inactive) | > 100 µM (inactive) | > 100 µM (inactive) | > 100 µM (inactive) | > 100 µM (inactive) | 12.7 µM (inactive) | > 100 µM (inactive) | > 100 µM (inactive) | 72.1 µM (inactive) | 89.3 µM (inactive) |  | > 100 µM (inactive) | > 100 µM (inactive) | > 100 µM (inactive) | > 100 µM (inactive) |  | 41.4 µM (inactive) | 98.2 µM (inactive)
O=S(=O)(Nc1nccs1)c1ccc(Nc2nc(-c3cccs3)nc3ccc(I)cc23)cc1 | 16.3 µM (inactive) | 29.6 µM (inactive) | 35.1 µM (inactive) | 17.4 µM (inactive) |  | 32.5 µM (inactive) | 42.3 µM (inactive) | 40.2 µM (inactive) | 26.9 µM (inactive) | 18.7 µM (inactive) | 8.97 µM (inactive) | 38.5 µM (inactive) | 11.8 µM (inactive) | 9.48 µM (inactive) | 26.7 µM (inactive) | 19.2 µM (inactive) |  | 2.22 µM (inactive) | 14.6 µM (inactive)
COc1ccc2c(c1)c(=O)c1c(NCCN(C)C)ccc3nnn2c31 | 2.82 µM (inactive) | 2.4 µM (inactive) | 2.46 µM (inactive) | 3.33 µM (inactive) |  |  | 1.82 µM (inactive) | 4.06 µM (inactive) | 1.97 µM (inactive) | 1.57 µM (inactive) | 0.655 µM (active) | 6.31 µM (inactive) |  |  | 2.21 µM (inactive) | 4.71 µM (inactive) |  | 2.05 µM (inactive) | 1.33 µM (inactive)
CC1=C2CC3=C(C)C(=O)O[C@H]3C[C@@H](C)[C@@H]2CC1 [AMERICANOLIDE D] |  | > 100 µM (inactive) | > 100 µM (inactive) | > 100 µM (inactive) | > 100 µM (inactive) |  | 80.5 µM (inactive) | > 100 µM (inactive) | > 100 µM (inactive) | 85.9 µM (inactive) | > 100 µM (inactive) | > 100 µM (inactive) | > 100 µM (inactive) |  |  | > 100 µM (inactive) | > 100 µM (inactive) | > 100 µM (inactive) | > 100 µM (inactive)
